For this data set the following is noted: Crystal; DTA.

Molecules are shown by their SMILES. Numbers after ± are expanded uncertainties.

Consider `COc1ccc2[nH]c(SCc3ncc(C)c(OC)c3C)nc2c1` [Omeprazole sulfide], for which the Normal melting temperature came out at 119.00 ± 0.5 °C.

(Values after the NIST ThermoML archive (doi:10.1016/j.fluid.2015.07.038).)
